≈ marks a conversion by molar mass, not a printed value. Read-outs that look alike come from different tables or passages of the source.
Assays:
wild type strain W3110 [1] = assay: microbe, parasite or virus in culture; type: cell-based, E. coli; settings: Escherichia coli, W3110, LB broth, 16 h at 37° C.
PhoU mutant (JHU-313) [2] = assay: MIC/MBC by serial two-fold dilutions in LB broth; type: cell-based, E. coli; settings: Escherichia coli, 16 h at 37° C.
JHU-313 containing pPhoU [3] = assay: MIC/MBC by serial two-fold dilutions in LB broth; type: cell-based, E. coli; settings: Escherichia coli, 16 h at 37° C.
[4] = system: JHU-313 containing pVector; assay: MIC/MBC by serial two-fold dilutions in LB broth; type: cell-based, E. coli; settings: Escherichia coli, 16 h at 37° C.
wild type strain W3110 [5] = type: cell-based, E. coli
PhoU mutant (JHU-313) [6] = assay: Sequential antibiotic exposure of ampicillin persisters (CFU); type: cell-based, E. coli
wild type strain W3110 [7] = type: cell-based
[8] = system: PhoU transposon mutant (JHU-313); type: cell-based
[9] = system: PhoU deletion mutant (ΔphoU); type: cell-based
W3110 = assay: microbe, parasite or virus in culture; settings: Escherichia coli, read-out: zone inhibition
Procedure: (§1) The sensitivity of the bacterial strains to antibiotics or peroxide was determined by Kirby-Bauer's paper disc assay as measured by zone inhibition in millimeters.
(§2) The sensitivity of bacterial strains to antibiotics or stresses was also assessed by the Kirby-Bauer method (2) using paper discs. E. coli bacteria were grown to log phase (10^8 bacteria) in LB broth. An inoculum from this culture was spread across the surfaces of LB plates to provide confluent growth. Nitrocellulose discs (7 mm in diameter) soaked with appropriate antibiotics or stress agents (100 mM H2O2, were placed on the agar surface). After incubation at 37° C. for 48 h, the diameter of the zone of growth inhibition was measured and scored according to the size of the zone of inhibition, which is directly proportional to the sensitivity of the organism to the antibiotic.

JHU-313 = assay: Kirby-Bauer paper disc assay, zone inhibition; settings: Escherichia coli, read-out: zone inhibition
Procedure: as §1, §2

JHU-313 containing pPhoU [10] = assay: Kirby-Bauer paper disc assay, zone inhibition; settings: Escherichia coli, read-out: zone inhibition
Procedure: as §1, §2

[11] = system: JHU-313 containing pVector; assay: Kirby-Bauer paper disc assay, zone inhibition; settings: Escherichia coli, read-out: zone inhibition
Procedure: as §1, §2

PhoU = target: T1, PhoU (Escherichia coli, UniProt P0A9K7); assay: PhoU phosphatase substrate specificity; type: biochemical, E. coli; settings: pH5, pH7 and pH8
T1 construct: His; made in house
Procedure: Different substrates for the PhoU phosphatase activity were tested. […] For PhoU, the substrates acetyl-P, carbamoyl-P, imido-di phosphate (imido-di-P), r-nitrophenyl phosphate (rNPP), β-Nicotinamide adenine dinucleotide phosphate (NADP), Glucose-1,6-bisphosphate (Glucose-1,6-bisP) were tested at pH5, pH7, and pH8 condition, as potential PhoU phosphatase activity.

[12] = 20 h after 1.5 h ampicillin pre-exposure, ampicillin 100, gentamicin 20, trimethoprim 16, norfloxacin 5 μg/ml
[13] = log phase, ampicillin 100 μg/ml, 1.5 h
[14] = log phase, 100 μg/ml, 24 hr exposure
[15] = log phase, 1 week, Ap100, Norf3
[16] = log phase, 5 hr, ampicillin 100 μg/ml (Ap100), norfloxacin 3 μg/ml (Norf3)
[17] = log phase, 3 days, Ap100, Norf3
[18] = log phase, 5 days, Ap100, Norf3
[19] = log phase, 10 days, Ap100, Norf3
[20] = log phase, ampicillin 100 μg/ml, norfloxacin 3 μg/ml
[21] = stationary phase, 100 μg/ml, 72 hr
[22] = stationary phase, 1 week, Ap100, Norf3
[23] = stationary phase, 5 hr, ampicillin 100 μg/ml (Ap100), norfloxacin 3 μg/ml (Norf3)
[24] = stationary phase, 1 day, Ap100, Norf3
[25] = stationary phase, 3 days, Ap100, Norf3
[26] = stationary phase, 5 days, Ap100, Norf3
[27] = stationary phase, 10 days, Ap100, Norf3

T1 sequence (P0A9K7 whole entry): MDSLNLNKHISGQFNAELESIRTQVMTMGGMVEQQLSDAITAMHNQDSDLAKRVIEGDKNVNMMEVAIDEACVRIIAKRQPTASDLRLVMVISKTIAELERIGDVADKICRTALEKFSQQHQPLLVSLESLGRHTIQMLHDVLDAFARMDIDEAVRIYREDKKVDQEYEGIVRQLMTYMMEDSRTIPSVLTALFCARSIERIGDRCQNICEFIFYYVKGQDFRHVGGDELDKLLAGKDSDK

CC1(C)S[C@@H]2[C@H](NC(=O)[C@H](N)c3ccccc3)C(=O)N2[C@H]1C(=O)O [Ampicillin, ampicillin]
MBC (wild type strain W3110 [1]; read-out: MBC): 12.5 µg/mL (≈ 35.8 µM)
MIC (wild type strain W3110 [1]; read-out: MIC): 3.1 µg/mL (≈ 8.87 µM)
MBC (PhoU mutant (JHU-313) [2]; read-out: MBC): 6.25 µg/mL (≈ 17.9 µM)
MIC (PhoU mutant (JHU-313) [2]; read-out: MIC): 1.5 µg/mL (≈ 4.29 µM)
MBC (JHU-313 containing pPhoU [3]; read-out: MBC): 12.5 µg/mL (≈ 35.8 µM)
MIC (JHU-313 containing pPhoU [3]; read-out: MIC): 3.1 µg/mL (≈ 8.87 µM)
MBC ([4]; read-out: MBC): 6.25 µg/mL (≈ 17.9 µM)
MIC ([4]; read-out: MIC): 3.1 µg/mL (≈ 8.87 µM)
CFU after second antibiotic exposure (wild type strain W3110 [5]; [12]): 7 × 10^5 CFU/ml
decrease in CFU count (wild type strain W3110 [5]; log phase, 100 μg/ml, 1.5 hr): 3 log
CFU after ampicillin treatment (wild type strain W3110 [5]; [13]): 7 × 10^4 CFU/ml
CFU after second antibiotic exposure (PhoU mutant (JHU-313) [6]; [12]): 0 CFU/ml
decrease in CFU count (PhoU mutant (JHU-313) [6]; log phase, 100 μg/ml, 1.5 hr): 3 log
CFU after ampicillin treatment (PhoU mutant (JHU-313) [6]; [13]): 4 × 10^4 CFU/ml
viable bacteria left (wild type strain W3110 [7]; [14]): 10-100
CFU (wild type strain W3110 [7]; [15]): 0 CFU
CFU (wild type strain W3110 [7]; [16]): 3 × 10^3 CFU
CFU (wild type strain W3110 [7]; log phase, 1 day, Ap100, Norf3): 10 CFU
CFU (wild type strain W3110 [7]; [17]): 0 CFU
CFU (wild type strain W3110 [7]; [18]): 0 CFU
CFU (wild type strain W3110 [7]; [19]): 0 CFU
time to killing of all cells (wild type strain W3110 [7]; [20]): all cells were killed by three days
viable cells (wild type strain W3110 [7]; [21]): 10^8 CFU/ml
CFU (wild type strain W3110 [7]; [22]): 5 × 10^6 CFU
CFU (wild type strain W3110 [7]; [23]): 5 × 10^9 CFU
CFU (wild type strain W3110 [7]; [24]): 3 × 10^9 CFU
CFU (wild type strain W3110 [7]; [25]): 1 × 10^8 CFU
CFU (wild type strain W3110 [7]; [26]): 3 × 10^7 CFU
CFU (wild type strain W3110 [7]; [27]): 2 × 10^5 CFU
killed more than the wild type strain ([8]; log phase, 100 μg/ml, 3 hr): about 100 fold
viable cells remaining [8, 14]: no viable cells remained
CFU [8, 15]: 0 CFU
CFU [8, 16]: 20 CFU
CFU ([8]; log phase, 1 day, Ap100, Norf3): 0-1 CFU
CFU [8, 17]: 0 CFU
CFU [8, 18]: 0 CFU
CFU [8, 19]: 0 CFU
time to killing of all cells [8, 20]: all cells were killed by three days
sterilization of culture [8, 21]: completely sterilized
CFU [8, 22]: 0 CFU
CFU [8, 23]: 2 × 10^8 CFU
CFU [8, 24]: 1 × 10^7 CFU
CFU [8, 25]: 0 CFU
CFU [8, 26]: 0 CFU
CFU [8, 27]: 0 CFU
CFU [9, 15]: 0 CFU
CFU [9, 16]: 6 × 10^2 CFU
CFU ([9]; log phase, 1 day, Ap100, Norf3): 0-1 CFU
CFU [9, 17]: 0 CFU
CFU [9, 18]: 0 CFU
CFU [9, 19]: 0 CFU
time to killing of all cells [9, 20]: all cells were killed by three days
CFU [9, 22]: 0 CFU
CFU [9, 23]: 6 × 10^8 CFU
CFU [9, 25]: 0 CFU
CFU [9, 26]: 0 CFU
CFU [9, 27]: 0 CFU
zone of inhibition at 1.5 µg/mL (W3110): 21 mm
zone of inhibition at 6 µg/mL (W3110): 25 mm
zone of inhibition at 25 µg/mL (W3110): 28 mm
zone of inhibition at 100 µg/mL (W3110): 35 mm
zone of inhibition at 1.5 µg/mL (JHU-313): 25 mm
zone of inhibition at 6 µg/mL (JHU-313): 30 mm
zone of inhibition at 25 µg/mL (JHU-313): 35 mm
zone of inhibition at 100 µg/mL (JHU-313): 40 mm
zone of inhibition at 1.5 µg/mL (JHU-313 containing pPhoU [10]): 25 mm
zone of inhibition at 6 µg/mL (JHU-313 containing pPhoU [10]): 32 mm
zone of inhibition at 25 µg/mL (JHU-313 containing pPhoU [10]): 36 mm
zone of inhibition at 100 µg/mL (JHU-313 containing pPhoU [10]): 40 mm
zone of inhibition at 1.5 µg/mL [11]: 27 mm
zone of inhibition at 6 µg/mL [11]: 34 mm
zone of inhibition at 25 µg/mL [11]: 40 mm
zone of inhibition at 100 µg/mL [11]: 45 mm

O=P(O)(O)OC[C@H]1O[C@H](OP(=O)(O)O)[C@H](O)[C@@H](O)[C@@H]1O [Glucose-1,6-bisP, Glucose-1,6-bisphosphate]
rank as PhoU phosphatase substrate (PhoU): acetyl-P>rNPP>carbamoyl-P>Glucose-1,6-bisP>NADP

— patent publication US20100210602A1, “PhoU (PerF), A P[…] INVOLVED IN [sequence] FORMATION AND TOLERANCE TO MULTIPLE ANTIBIOTICS AND [sequence] AS A DRUG TARGET FOR [sequence] BACTERIA” (priority 2006, published 2010)
